“Also recorded” adds a separate entry of the source.
Key:
murine dendritic cells [1] = assay: TNF-alpha secretion by CpG-stimulated murine dendritic cells (ELISA); type: cell-based; details: stimulated overnight with graded doses of CpG, FIG. 1A
Description: (§1) Murine dendritic cells (FIG. 1A) or the murine macrophage-like cell line RAW264.7 cells (FIG. 1B) were cultured in the presence of sirtuin inhibitors as indicated or an equivalent amount of solvent (DMSO) and stimulated overnight with graded doses of CpG (FIG. 1A) or for 2 h with 100 ng/ml of lipopolysaccharide (LPS) from gram-negative bacteria. Cell supernatants were tested for tumor necrosis factor (TNF-alpha) content by ELISA.

[2] = system: murine macrophage-like cell line RAW264.7; assay: TNF-alpha secretion by LPS-stimulated RAW264.7 cells (ELISA); type: cell-based; details: stimulated 2 h with 100 ng/ml LPS, FIG. 1B
Description: as §1

murine dendritic cells [3] = assay: RANTES secretion by CpG-stimulated murine dendritic cells (ELISA); type: cell-based; details: inferred from RANTES secretion, FIG. 2
Description: Murine dendritic cells were cultured in the presence of sirtuin inhibitors as indicated and stimulated overnight with graded doses of CpG. Cell supernatants were tested for RANTES content by ELISA.

RAW264.7 = assay: TNF-alpha mRNA accumulation in LPS-stimulated RAW264.7 (quantitative RT-PCR); type: cell-based, murine; details: RAW264.7, stimulated 2 h by LPS, FIG. 3
Description: RAW264.7 were incubated in the presence of sirtuin inhibitors or equivalent doses of solvent (DMSO) as indicated and stimulated for 2 h by LPS. Expression of mRNA encoding for TNF-α was monitored using quantititative RT-PCR using standard procedures and the following forward and reverse primers (fwd: […]; rev: gctacgacgtgggctacag). […] Collectively, these observations indicate that sirtuin inhibitors may affect TNF-alpha secretion by interfering with at a post-transcriptional step.

[4] = Yang et al. 2007; cited from earlier work
SIRT1 = SIRT1 (Homo sapiens, UniProt Q96EB6); details: Howitz et al. 2003; cited from earlier work
SIRT1, sequence (Q96EB6 whole entry): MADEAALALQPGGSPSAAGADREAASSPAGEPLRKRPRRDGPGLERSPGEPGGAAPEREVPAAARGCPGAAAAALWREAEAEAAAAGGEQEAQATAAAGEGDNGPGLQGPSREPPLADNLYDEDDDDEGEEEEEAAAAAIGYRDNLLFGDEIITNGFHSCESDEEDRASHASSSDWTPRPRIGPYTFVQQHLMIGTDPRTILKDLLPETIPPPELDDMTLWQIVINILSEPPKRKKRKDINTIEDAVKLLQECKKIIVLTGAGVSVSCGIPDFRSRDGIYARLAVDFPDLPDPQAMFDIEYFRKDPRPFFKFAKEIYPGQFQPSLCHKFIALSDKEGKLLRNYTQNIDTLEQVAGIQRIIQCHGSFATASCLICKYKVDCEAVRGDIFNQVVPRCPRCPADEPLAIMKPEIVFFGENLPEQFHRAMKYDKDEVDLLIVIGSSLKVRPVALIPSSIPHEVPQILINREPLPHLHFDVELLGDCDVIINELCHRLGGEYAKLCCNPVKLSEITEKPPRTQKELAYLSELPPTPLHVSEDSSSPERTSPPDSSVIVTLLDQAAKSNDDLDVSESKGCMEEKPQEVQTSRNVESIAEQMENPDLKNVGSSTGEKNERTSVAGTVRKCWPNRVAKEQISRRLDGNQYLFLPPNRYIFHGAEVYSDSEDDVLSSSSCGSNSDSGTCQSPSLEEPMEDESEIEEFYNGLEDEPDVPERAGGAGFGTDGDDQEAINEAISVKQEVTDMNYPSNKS

| Compound | TNF-alpha secretion (supernatant TNF-alpha content by ELISA) (murine dendritic cells [1]) | TNF-alpha secretion / cytokine production (supernatant TNF-alpha content by ELISA) [2] | general inhibition of protein synthesis or induction of cell death (murine dendritic cells [3]) | intracellular accumulation of TNF-alpha mRNA (RAW264.7) | release of inflammatory cytokines induced by cigarette smoke extracts [4] | inhibition of SIRT1 enzymatic activity (SIRT1) |
| --- | --- | --- | --- | --- | --- | --- |
| Oc1ccc2ccccc2c1Cc1c(O)nc(S)nc1-c1ccccc1 [cambinol, 5-((2-hydroxy-1-naphthyl)methyl)-2-mercapto-6-phenyl-4-pyrimidinol] | downregulation of TNF-alpha secretion | inhibit TNF-α protein synthesis; also recorded: downregulation of TNF-alpha secretion; also recorded: may downregulate TNF-alpha cytokine production | do not generally inhibit protein synthesis nor induce cell death | do not significantly affect TNF-alpha mRNA accumulation; also recorded: without significantly affecting the intracellular accumulation of TNF-alpha mRNA |  |  |
| CC(NC(=O)c1ccccc1/N=C/c1c(O)ccc2ccccc12)c1ccccc1 (stereo not shown) [sirtinol, 2-[(2-Hydroxynaphthalen-1-ylmethylene)amino]-N-(1-phenethyl)benzamide] | downregulation of TNF-alpha secretion | inhibit TNF-α protein synthesis; also recorded: downregulation of TNF-alpha secretion; also recorded: may downregulate TNF-alpha cytokine production | do not generally inhibit protein synthesis nor induce cell death | do not significantly affect TNF-alpha mRNA accumulation; also recorded: without significantly affecting the intracellular accumulation of TNF-alpha mRNA | could increase the release of inflammatory cytokines |  |
| Cc1ccc(C(=O)Nc2ccc(S(=O)(=O)O)c3cc(S(=O)(=O)O)cc(S(=O)(=O)O)c23)cc1NC(=O)c1cccc(NC(=O)Nc2cccc(C(=O)Nc3cc(C(=O)Nc4ccc(S(=O)(=O)O)c5cc(S(=O)(=O)O)cc(S(=O)(=O)O)c45)ccc3C)c2)c1 [suramin] |  |  |  |  |  | found to inhibit SIRT1 enzymatic activity |

Reference: patent publication US20100137345A1, “PROPHYLACTIC AND THERAPEUTIC USE OF SIRTUIN INHIBITORS IN TNF-ALPHA MEDIATED PATHOLOGIES” (Universite Libre de Bruxelles, priority 2007, published 2010)
